Results reported in publication PMC3045100, “Cell-Penetrating Penta-Peptides (CPP5s): Measurement of Cell Entry and Protein-Transduction Activity” (Pharmaceuticals, 2010).

What was measured:
DAMI cells = test: Cell-penetration activity of Fam-labeled CPP5s, cellular fluorescence by FACS and/or microscopy; type: cell-based, human; settings: peptides Fam-labeled on the N-terminus, 200 μM, 3 h, 37 °C, fluorescence intensity of cells by FACS, mean of triplicate samples
Procedure: Figure 1 Cell-penetration activity of CPP5s. a. List of cell-penetrating penta-peptides (CPP5s). […] Peptide sequences are color-coded to show the constant amphipathic amino acid arrangement in each CPP5. Cell-penetration activity was determined by fluorescence intensity of cells (DAMI cells: a human megakaryocytic cancer cell line) incubated with fluorescein (Fam)-labeled peptides (200 μM) for 3 h at 37 °C as described in Experimental Procedures. Fam was labeled on the N-terminus of all peptides examined. Cells were analyzed by FACS and/or microscopy. The activity of each peptide is shown as a percentage of the activity of KLPVM. Each value represents the mean of triplicate samples. Cell entry of some peptides was confirmed by microscopy only, and these peptides are indicated with a ‘+’ without a percentage value. For cytoprotective activity (right column), the information is based on previous studies and the activity was determined by the protection of cells from Bax overexpression and other apoptotic stimuli such as etoposide treatment. b to e. Cell entry of Fam-labeled VPTLK, KLPVM, TAT, and poly-arginine (R8). HeLa cells were incubated with Fam-labeled VPTLK, KLPVM (200 μM), Fam-TAT (10 μM), and Fam-R8 (10 μM) for 1 h at 37 °C. Images are at 20× magnification. f. Comparison of the cytotoxicity of CPP5 and TAT. Primary cultured mouse embryonic fibroblast (MEF) cells were treated with various concentrations of peptides for 24 h as indicated. Then, apoptosis was analyzed as described in Experimental Procedures. Each bar represents the mean of triplicate samples and standard error. TEXT PRINTED IN THE PICTURE: (a) VPMLK: Cell Penetration (%): 97 ± 4.3; Cytoprotection: + | (a) VPTLK: Cell Penetration (%): 61 ± 1.7; Cytoprotection: + | (a) VPALR: Cell Penetration (%): 79 ± 1.5; Cytoprotection: + | (a) VSALK: Cell Penetration (%): 90 ± 3; Cytoprotection: N.D. | (a) PMLKE: Cell Penetration (%): 65 ± 3.7; Cytoprotection: + | (a) VPALK: Cell Penetration (%): 71 ± 2.2; Cytoprotection: + | (a) VSLKK: Cell Penetration (%): +; Cytoprotection: - | (a) VSGKK: Cell Penetration (%): +; Cytoprotection: - | (a) KLPVM: Cell Penetration (%): 100 ± 2.3; Cytoprotection: - | (a) IPMIK: Cell Penetration (%): 47 ± 1.4; Cytoprotection: - | (a) KLGVM: Cell Penetration (%): +; Cytoprotection: - | (a) KLPVT: Cell Penetration (%): +; Cytoprotection: - | (a) VPMIK: Cell Penetration (%): +; Cytoprotection: N.D. | (a) IPALK: Cell Penetration (%): +; Cytoprotection: N.D. | (a) IPMLK: Cell Penetration (%): +; Cytoprotection: N.D. | (a) VPTLQ: Cell Penetration (%): 70 ± 4; Cytoprotection: - | (a) QLPVM: Cell Penetration (%): +; Cytoprotection: - | (a) ELPVM: Cell Penetration (%): +; Cytoprotection: - | (a) VPTLE: Cell Penetration (%): 80 ± 1.9; Cytoprotection: N.D.
CPP5s that were designed based on the Bax-binding domain of Ku70 of several species are named Bax-Inhibiting Peptides (BIPs); they are VPMLK, PMLKE, VPTLK, VPALR, and VPALK. VPMLK and PMLKE were designed from human Ku70, and the same sequence exists in the Ku70 homologues of dog and monkey. VPTLK and VPALR are based on mouse and rat Ku70, respectively. VPALK was designed from cattle Ku70, and the same sequence exists in Ku70 of the African clawed frog. Cytoprotective activities of these BIPs have been previously reported, both in cell culture and animal models. […] The observed variation in cell-entering activity of Fam-labeled-CPP5s is shown in Figure 1a as a percentage of the activity of KLPVM. In all cases, Fam was attached to the N-terminal amino acid. For some CPP5s, cell-penetration activity was confirmed by detection of an intracellular fluorescent signal by microscopy. These latter results are indicated with ‘+’ symbols, and a quantitative comparison with the activity of KLPVM was not performed. […]

Bax = target: T1, Bax (Homo sapiens, UniProt Q07812); test: Inhibition of Bax-induced apoptosis after pEGFP-Bax transfection; type: cell-based; settings: 200 μM peptide 3 h before pEGFP-Bax plasmid transfection, apoptosis assayed 24 h after transfection, triplicate samples, P < 0.01
T1 construct: expressed in transfected cells; host or cells: HeLa cells
Procedure: Figure 3 Protection of cells from apoptosis by VPTLK. a-d. Proteoglycan is not required for VPTLK cell entry. Microscopic analysis of cell entry of Fam-VPTLK in Chinese Hamster Ovary (CHO) A745 cells lacking proteoglycans in the plasma membrane (a) and CHO K1 cells that express proteoglycans (b). CHO A745 and K1 cells were incubated with Fam-VPTLK (200 μM) for 3 h at 37 °C. […] Apoptosis was determined by using Hoechst dye nuclear staining. Each bar represents the mean of triplicate samples and standard error, and statistical significance was determined by an unpaired student t test; “ns”: not significant, *P < 0.05, and **P < 0.01. e. […] Jurkat cells were pre-incubated with VPTLK 200 μM for 3 h prior to STS treatment (100 nM, 3 or 6 h). Apoptosis was determined by Hoechst dye nuclear staining. Each bar represents the mean of triplicate samples and standard error, and statistical significance was determined by an unpaired student t test: **P < 0.01. f. […] Apoptosis was determined by Hoechst dye nuclear staining. […]
To induce Bax-mediated apoptosis in HeLa cells, cells were transfected with pEGFP-Bax (1 µg) and apoptosis was determined 24 h after the transfection. […] To detect apoptosis, cells were stained with Hoechst 33258 dye, and the numbers of cells with apoptotic nuclei were counted using fluorescence microscopy. Three-hundred cells were analyzed in triplicate samples. […]

T1 sequence (Q07812 whole entry, species assumed): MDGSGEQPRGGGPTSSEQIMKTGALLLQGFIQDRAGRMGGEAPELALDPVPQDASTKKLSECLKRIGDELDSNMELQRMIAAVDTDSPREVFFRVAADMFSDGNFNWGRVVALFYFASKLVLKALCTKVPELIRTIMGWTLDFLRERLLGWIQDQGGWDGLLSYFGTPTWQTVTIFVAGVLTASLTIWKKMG

Cell Penetration (%), percentage of the activity of KLPVM (DAMI cells): 61 ± 1.7%
Substance: VPTLK
Inhibition of Bax-induced apoptosis, HeLa (Bax): inhibited Bax-induced apoptosis in HeLa cells
